Experimental findings from ChEMBL document CHEMBL1833866, “Synthesis and evaluation of 1-(4-[¹⁸F]fluoroethyl)-7-(4'-methyl)curcumin with improved brain permeability for β-amyloid plaque imaging” (Bioorg Med Chem Lett, 2011) are described below.

Data set [1] is described as follows: Binding affinity to amyloid beta (1 to 42) after 3 hrs using [125I]IMSB by gamma counter method.
The test system of data set [2] is Mus musculus. Kind of data set: In vivo binding affinity to amyloid beta (1 to 42) in double transgenic APP/PS-1 mouse brain at 100 uM after 30 mins by microscopy. It is filed as functional, organism-based.
Data set [3] deals with Mus musculus. Description: In vivo binding affinity to amyloid beta (1 to 42) in wild type mouse brain at 100 uM after 30 mins by microscopy. The data set is classed as functional, organism-based.
In data set [4] the test system is Blood. Kind of data set: Biodistribution in ICR mouse blood at 1.11 MBq, iv after 30 mins. It is filed as ADME, organism-based. Particulars: in vivo, 0.5 h.
Data set [5] deals with Spleen. Kind of data set: Biodistribution in ICR mouse Spleen at 1.11 MBq, iv after 60 mins. It is filed as ADME, organism-based. Conditions: in vivo, 1 h.
For data set [6], the system named is Lung. Description: Biodistribution in ICR mouse Lung at 1.11 MBq, iv after 30 mins. It is filed as ADME, organism-based. Particulars: in vivo, 0.5 h.
Data set [7] concerns Muscle tissue. Description: Biodistribution in ICR mouse Muscle at 1.11 MBq, iv after 60 mins. The data set is classed as ADME, organism-based. Particulars: in vivo, 1 h.
Data set [8] has as its system Liver. Description: Biodistribution in ICR mouse Liver at 1.11 MBq, iv after 2 mins. The data set is classed as ADME, organism-based. Conditions: in vivo.
Data set [9] relates to Kidney. Description: Biodistribution in ICR mouse Kidney at 1.11 MBq, iv after 120 mins. The data set is classed as ADME, organism-based. Particulars: in vivo, 2 h.
The test system of data set [10] is Spleen. Description: Biodistribution in ICR mouse Spleen at 1.11 MBq, iv after 2 mins. It is filed as ADME, organism-based. Particulars: in vivo.
In data set [11] the test system is Liver. Kind of data set: Biodistribution in ICR mouse Liver at 1.11 MBq, iv after 60 mins. Particulars: in vivo, 1 h. It is filed as ADME, organism-based.
Data set [12] relates to Lung. Description: Biodistribution in ICR mouse Lung at 1.11 MBq, iv after 2 mins. It is filed as ADME, organism-based. Conditions: in vivo.
For data set [13], the system named is Blood. Description: Biodistribution in ICR mouse blood at 1.11 MBq, iv after 2 mins. It is filed as ADME, organism-based. Particulars: in vivo.
Data set [14] deals with Kidney. Description: Biodistribution in ICR mouse Kidney at 1.11 MBq, iv after 60 mins. It is filed as ADME, organism-based. Particulars: in vivo, 1 h.
In data set [15] the test system is Heart. Kind of data set: Biodistribution in ICR mouse heart at 1.11 MBq, iv after 120 mins. It is filed as ADME, organism-based. Conditions: in vivo, 2 h.
For data set [16], the system named is Lung. Description: Biodistribution in ICR mouse Lung at 1.11 MBq, iv after 120 mins. It is filed as ADME, organism-based. Conditions: in vivo, 2 h.
Data set [17] deals with Femur. Description: Biodistribution in ICR mouse Femur at 1.11 MBq, iv after 120 mins. The data set is classed as ADME, organism-based. Particulars: in vivo, 2 h.
Data set [18] deals with Brain. Kind of data set: Biodistribution in ICR mouse Brain at 1.11 MBq, iv after 30 mins. It is filed as ADME, organism-based. Particulars: in vivo, 0.5 h.
Data set [19] relates to Kidney. Kind of data set: Biodistribution in ICR mouse Kidney at 1.11 MBq, iv after 30 mins. It is filed as ADME, organism-based. Conditions: in vivo, 0.5 h.
Data set [20] has as its system Blood. Kind of data set: Biodistribution in ICR mouse blood at 1.11 MBq, iv after 60 mins. The data set is classed as ADME, organism-based. Conditions: in vivo, 1 h.
Data set [21] has as its system Spleen. Description: Biodistribution in ICR mouse Spleen at 1.11 MBq, iv after 120 mins. The data set is classed as ADME, organism-based. Particulars: in vivo, 2 h.
The test system of data set [22] is Blood. Kind of data set: Biodistribution in ICR mouse blood at 1.11 MBq, iv after 120 mins. Conditions: in vivo, 2 h. It is filed as ADME, organism-based.
For data set [23], the system named is Liver. Kind of data set: Biodistribution in ICR mouse Liver at 1.11 MBq, iv after 120 mins. Particulars: in vivo, 2 h. The data set is classed as ADME, organism-based.
Data set [24] deals with Heart. Description: Biodistribution in ICR mouse heart at 1.11 MBq, iv after 30 mins. It is filed as ADME, organism-based. Particulars: in vivo, 0.5 h.
Data set [25] relates to Heart. Kind of data set: Biodistribution in ICR mouse heart at 1.11 MBq, iv after 2 mins. Particulars: in vivo. The data set is classed as ADME, organism-based.
Data set [26] relates to Femur. Kind of data set: Biodistribution in ICR mouse Femur at 1.11 MBq, iv after 60 mins. The data set is classed as ADME, organism-based. Particulars: in vivo, 1 h.
A short description of data set [27]: Octanol-water partition coefficient, log P of the compound by TLC analysis. The data set is classed as physicochemical.
The subject of data set [28] is Kidney. Description: Biodistribution in ICR mouse Kidney at 1.11 MBq, iv after 2 mins. It is filed as ADME, organism-based. Particulars: in vivo.
Data set [29] relates to Muscle tissue. Kind of data set: Biodistribution in ICR mouse Muscle at 1.11 MBq, iv after 2 mins. It is filed as ADME, organism-based. Particulars: in vivo.
For data set [30], the system named is Femur. Description: Biodistribution in ICR mouse Femur at 1.11 MBq, iv after 30 mins. It is filed as ADME, organism-based. Conditions: in vivo, 0.5 h.
Data set [31] has as its system Liver. Description: Biodistribution in ICR mouse Liver at 1.11 MBq, iv after 30 mins. Conditions: in vivo, 0.5 h. The data set is classed as ADME, organism-based.
In data set [32] the test system is Brain. Kind of data set: Biodistribution in ICR mouse Brain at 1.11 MBq, iv after 60 mins. Conditions: in vivo, 1 h. It is filed as ADME, organism-based.
The test system of data set [33] is Heart. Kind of data set: Biodistribution in ICR mouse heart at 1.11 MBq, iv after 60 mins. The data set is classed as ADME, organism-based. Particulars: in vivo, 1 h.
Data set [34] has as its system Lung. Kind of data set: Biodistribution in ICR mouse Lung at 1.11 MBq, iv after 60 mins. Conditions: in vivo, 1 h. The data set is classed as ADME, organism-based.
Data set [35] concerns Brain. Description: Biodistribution in ICR mouse Brain at 1.11 MBq, iv after 2 mins. The data set is classed as ADME, organism-based. Particulars: in vivo.
In data set [36] the test system is Muscle tissue. Kind of data set: Biodistribution in ICR mouse Muscle at 1.11 MBq, iv after 120 mins. The data set is classed as ADME, organism-based. Particulars: in vivo, 2 h.
The subject of data set [37] is Brain. Kind of data set: Biodistribution in ICR mouse Brain at 1.11 MBq, iv after 120 mins. It is filed as ADME, organism-based. Conditions: in vivo, 2 h.
The test system of data set [38] is Femur. Description: Biodistribution in ICR mouse Femur at 1.11 MBq, iv after 2 mins. The data set is classed as ADME, organism-based. Particulars: in vivo.
For data set [39], the system named is Spleen. Description: Biodistribution in ICR mouse Spleen at 1.11 MBq, iv after 30 mins. The data set is classed as ADME, organism-based. Conditions: in vivo, 0.5 h.
For data set [40], the system named is Muscle tissue. Kind of data set: Biodistribution in ICR mouse Muscle at 1.11 MBq, iv after 30 mins. The data set is classed as ADME, organism-based. Particulars: in vivo, 0.5 h.
Data set [41] can be described thus: Ratio of drug uptake in hippocampus to cerebellum in transgenic Tg2576 mouse brain. Particulars: in vivo.
The nature of data set [42]: Binding affinity to amyloid beta (1 to 40) after 3 hrs using [125I]IMSB by gamma counter method.

Calls of active or inactive are those of the source. No cut-off for these calls is given here.

Broadly, the Ki is the dissociation constant of the complex between target and ligand, obtained from inhibition or displacement. Read a low Ki as tighter binding. In turn, `[11CH3]Nc1ccc(-c2nc3ccc(O)cc3s2)cn1` registered an inhibition constant Ki in data set [1] of 1.7 nM.

With `COc1cc(/C=C/C(=O)/C=C(O)/C=C/c2ccc(OCCOCCOCCF)c(OC)c2)ccc1O`, in [1], the affinity, expressed as Ki, was 4.44 nM.

The compound `O=C(O)c1cc(/N=N/c2ccc(-c3ccc(/N=N/c4ccc(O)c(C(=O)O)c4)cc3)cc2)ccc1O` [CHRYSAMINE G] gave a Ki in data set [1] of 0.43 nM.

For the compound `COc1ccc(/C=C/C(=O)/C=C(O)/C=C/c2ccc(OCCF)c(OC)c2)cc1OC`, in data set [2], the outcome was Active. Further, in data set [1], the affinity, expressed as Ki, was 2.12 nM. In addition, the result in data set [3] was inactive.

In general, logP refers to the decadic logarithm of the partition coefficient of the neutral form, usually between octanol and water. The low end stands for lower lipophilicity, the high end for higher lipophilicity. Turning to `COc1ccc(/C=C/C(=O)/C=C(O)/C=C/c2ccc(OCC[18F])c(OC)c2)cc1OC`, the Drug uptake in data set [4] was 1.26 % ID/g; in [5], 10.59 % ID/g; in data set [6] it was 3.94 % ID/g; in [7], 0.47 % ID/g; in data set [8] it was 38.83 % ID/g; in data set [9] it was 1.42 % ID/g. Besides, the Drug uptake in data set [10] came out at 16.41 % ID/g; in data set [11], 26.83 % ID/g; in data set [12], 23.78 % ID/g; in data set [13], 9.76 % ID/g; in data set [14], 2.25 % ID/g; in data set [15], 1.54 % ID/g. Also, the Drug uptake in data set [16] amounted to 2.19 % ID/g; in data set [17], 1.62 % ID/g; in data set [18], 0.45 % ID/g; in data set [19] it was 4.01 % ID/g; in [20], 0.89 % ID/g; in [21], 8.08 % ID/g. Moreover, the Drug uptake is on record as 0.67 % ID/g in data set [22]; 12.51 % ID/g in [23]; 1.68 % ID/g in data set [24]; 7.18 % ID/g in data set [25]; 1 % ID/g in [26]; 10.95 % ID/g in data set [28]. For the same compound, the Drug uptake in data set [29] is recorded as 0.89 % ID/g; in data set [30], 1.08 % ID/g; in [31], 43.02 % ID/g; in data set [32], 0.43 % ID/g; in [33], 1.3 % ID/g; in [34], 2.27 % ID/g. Also, the Drug uptake in [35] was 1.44 % ID/g; in [36], 0.37 % ID/g; in [37] it was 0.29 % ID/g; in data set [38], 1.86 % ID/g; in [39], 20.8 % ID/g; in data set [40], 0.76 % ID/g. This compound also showed a logP in data set [27] of 2.4.

The Kd is the free concentration of one partner at which half of the binding sites on the other are occupied at equilibrium, for simple one-to-one binding. `COc1ccc(/C=C/c2ccc(/C=C/c3ccc(OC)c(C(=O)O)c3)c([125I])c2)cc1C(=O)O` registered an equilibrium dissociation constant (Kd) in data set [1] of 1.19 nM.

In data set [1], `[11CH3]Nc1ccc(-c2nc3ccc(O)cc3s2)cc1` [PITTSBURGH COMPOUND B] gave an inhibition constant Ki of […].

In the case of `COc1ccc(/C=C/C(=O)/C=C(O)/C=C/c2ccc(OCCOCCF)c(OC)c2)cc1OC`, the Ki in [1] turned out to be 3.01 nM.

In data set [1], `COc1ccc(/C=C/C(=O)/C=C(O)/C=C/c2ccc(OCCCF)c(OC)c2)cc1OC` registered an inhibitory constant (Ki) of 2.69 nM.

Take `COc1cc(/C=C/C(O)=C/C(=O)/C=C/c2ccc(OCCC[18F])c(OC)c2)ccc1O`: in [41], the Ratio is given as 3. The inhibition constant (Ki) in data set [42] was 0.07 nM.

In the case of `COc1cc(/C=C/C(=O)/C=C(O)/C=C/c2ccc(OCCOCCF)c(OC)c2)ccc1O`, the Ki in data set [1] came to 4.65 nM.

With `COc1cc(/C=C/C(=O)CC(=O)/C=C/c2ccc(O)c(OC)c2)ccc1O` [CURCUMIN], affinity in [1] was put at a Ki of 3.57 nM.
